Patent US6387933B1, “Insecticidal compositions and insecticidal methods” (Sumitomo Chemical Company, Limited, priority 2001, dated 2002)

Columns and labels:
silverleaf whiteflies [1] = assay: Test Example 1: spray on cabbage seedlings infested with silverleaf whiteflies; format: in vivo; conditions: 50 ppm; adults and larvae on cabbage seedling, 8 days after spray
Protocol: (§1) Cabbage seedlings planted in 3 ounces plastic cup were placed in a net cage containing many living silverleaf whiteflies for 24 hours, so that many silverleaf whiteflies became parasitic on the cabbage seedlings. A designated amount of each of acetamiprid on the market (commercial name, Mospilan water-soluble powder: produced by Nippon Soda), pyriproxyfen on the market (commercial name, Lano emulsifiable concentrate: produced by Sumitomo Chemical) and a mixture of acetamiprid and pyriproxyfen on the market were diluted with water, and then sprayed over the cabbage seedlings with spray gun. The number of silverleaf whiteflies (i.e., the total number of adults and larvae) surviving on the cabbage seedlings was examined just before and after 8 days from the treatment.

silverleaf whiteflies [2] = assay: Test Example 2: spray on cabbage seedlings infested with silverleaf whiteflies; format: in vivo; conditions: 8 days after spray
Protocol: as §1

Structure (SMILES) | Number of surviving insects/pot after 8 days (silverleaf whiteflies [1]) [insects/pot] | Number of surviving insects/pot after 8 days (silverleaf whiteflies [2]; 5 ppm) [insects/pot] | Number of surviving insects/pot after 8 days (silverleaf whiteflies [2]; 10 ppm) [insects/pot] | Number of surviving insects/pot after 8 days (silverleaf whiteflies [2]; 50 ppm) [insects/pot]
CC(COc1ccc(Oc2ccccc2)cc1)Oc1ccccn1 (centres unmarked) [pyriproxyfen, 4-phenoxyphenyl 2-(2-pyridyloxy)propyl ether] | 21 | 41 | 114 | 69
C/C(=N\C#N)N(C)Cc1ccc(Cl)nc1 [acetamiprid, (E)-N^1-[(6-chloro-3-pyridyl)methyl]-N^2-cyano-N^1-methylacetamidine] | 69 | 41 | 16 | 24
